# System: Bacillus subtilis 168CA
# Experiment: Minimum Inhibitory Concentration (MIC) testing, broth microdilution, Bacillus subtilis
# Format: cell-based
# Settings: Bacillus subtilis 168CA; read-out: Bacillus subtilis MICs Activity
# Protocol: (§1) Compounds of this invention were tested for antimicrobial activity by susceptibility testing in liquid media. MICs for compounds against each strain were determined by a broth microdilution method according to the National Committee for Clinical Laboratory Standards (NCCLS) guidelines. (NCCLS. 2000. Methods for dilution antimicrobial susceptibility tests for bacteria that grow aerobically—fifth edition. Approved standard M7-A5. NCCLS, Wayne, Pa.)
# (§2) Briefly, test compounds are prepared in 100 μl of 1.6% DMSO solution in multiwell plates. Several bacterial colonies from a freshly streaked plate are transferred to an appropriate rich broth, such as Mueller Hinton. The cell suspension is adjusted to an optical density of 0.09 and further diluted 1:100 with warm 2× broth. This cell suspension is dispensed into the wells containing compound solution so that the final volume is 200 μl. The plates are incubated overnight (16-20 hours) at 37° C. and turbidity is scored by eye and quantified spectrophotometrically. The MIC is defined as the lowest concentration inhibiting visible growth.
# Activities were scored as ‘A’ if the MIC was ≦8 micrograms/ml, ‘B’ if the MIC was 16 to 64 micrograms/ml and ‘C’ if the MIC was greater than 64 micrograms/ml.
row,Structure (SMILES),MIC [µg/mL]
1,"Cc1cc(COc2ccc(F)c(C(N)=O)c2F)ccc1F [Example 147, 2,6-Difluoro-3-(4-fluoro-3-methyl-benzyloxy)-benzamide]",16 to 64
2,"COc1ccc(-c2nc(COc3ccc(F)c(C(N)=O)c3F)sc2-c2ccncc2)cc1 [Example 127, 2,6-Difluoro-3-[4-(4-methoxy-phenyl)-5-pyridin-4-yl-thiazol-2-ylmethoxy]-benzamide]",< 8
3,"Cc1ccc2sc(COc3ccc(F)c(C(N)=O)c3F)cc2c1 [Example 205, 2,6-Difluoro-3-[(5-methyl-1-benzothiophen-2-yl)methoxy]benzenecarboxamide]",< 8
4,"COc1cc(-c2noc(COc3ccc(F)c(C(N)=O)c3F)n2)ccc1OC(F)F [Example 328, 3-[3-(4-Difluoromethoxy-3-methoxy-phenyl)-[1,2,4]oxadiazol-5-ylmethoxy]-2,6-difluoro-benzamide]",< 8
5,"CC(C)CCCCOc1cccc(C(N)=O)c1 [Example 22, 3-[(5-Methylhexyl)oxy]benzenecarboxamide]",16 to 64
6,"CCOC(=O)CCCOc1cccc(C(N)=O)c1 [Example 25, Ethyl 4-[3-(aminocarbonyl)phenoxy]butanoate]",> 64
7,"NC(=O)c1cccc(OCC2CC2)c1 [Example 4, 3-(Cyclopropylmethoxy)benzenecarboxamide]",> 64
8,"NC(=O)c1cccc(OCCCCc2ccccc2)c1 [Example 20, 3-(4-Phenylbutoxy)benzenecarboxamide]",< 8
9,"NC(=O)c1c(F)ccc(OCc2cccc([N+](=O)[O-])c2)c1F [Example 332, 2,6-Difluoro-3-(3-nitro-benzyloxy)-benzamide]",16 to 64
10,"Cc1sc(-c2ccccc2)nc1CCCOc1ccc(F)c(C(N)=O)c1F [Example 160, 2,6-Difluoro-3-[3-(5-methyl-2-phenyl-thiazol-4-yl)-propoxy]-benzamide]",< 8
11,"NC(=O)c1c(F)ccc(OCc2ccc3ccccc3c2)c1F [Example 113, 2,6-Difluoro-3-(naphthalen-2-ylmethoxy)-benzamide]",< 8
12,"Cc1cccc2nc(COc3ccc(F)c(C(N)=O)c3F)ccc12 [Example 96, 2,6-Difluoro-3-(5-methyl-quinolin-2-ylmethoxy)-benzamide]",16 to 64
13,"NC(=O)c1c(F)ccc(OCc2nc(-c3cccc(C(F)(F)F)c3)no2)c1F [Example 258, 2,6-Difluoro-3-(3-[3-(trifluoromethyl)phenyl]-1,2,4-oxadiazol-5-ylmethoxy)benzenecarboxamide]",< 8
14,"CC(C)Oc1cccc(C(N)=O)c1 [Example 3, 3-Isopropoxybenzenecarboxamide]",> 64
15,"COc1ccc(-c2noc(COc3ccc(F)c(C(N)=O)c3F)n2)c(OC)c1 [Example 261, 3-[3-(2,4-Dimethoxyphenyl)-1,2,4-oxadiazol-5-yl]methoxy-2,6-difluorobenzenecarboxamide]",16 to 64
16,"CCCCOc1cccc(C(N)=O)c1 [Example 7, 3-Butoxybenzenecarboxamide]",> 64
17,"CCCCCCC#CCOc1cccc(C(N)=O)c1 [Example 50, 3-(2-Nonynyloxy)benzenecarboxamide]",< 8
18,"NC(=O)c1cccc(OCCCCOc2ccccc2)c1 [Example 10, 3-(4-Phenoxybutoxy)benzenecarboxamide]",< 8
19,"NC(=O)c1c(F)ccc(OCc2nc(-c3ccccc3Cl)no2)c1F [Example 254, 3-[3-(2-Chlorophenyl)-1,2,4-oxadiazol-5-yl]methoxy-2,6-difluorobenzenecarboxamide]",< 8
20,"NC(=O)c1c(F)ccc(OCc2nnc(-c3ccc(Cl)cc3)s2)c1F [Example 234, 3-[5-(4-Chlorophenyl)-1,3,4-thiadiazol-2-yl]methoxy-2,6-difluorobenzenecarboxamide]",< 8
21,"NC(=O)c1c(F)ccc(OCc2ccc3cccnc3c2)c1F [Example 330, 2,6-Difluoro-3-(quinolin-7-ylmethoxy)-benzamide]",16 to 64
22,"CCCOc1cccc(C(N)=O)c1 [Example 2, 3-Propoxybenzenecarboxamide]",> 64
23,"CC(C)CCOc1cccc(C(N)=O)c1 [Example 13, 3-(Isopentyloxy)benzenecarboxamide]",16 to 64
24,"COc1ccc(CCOc2cccc(C(N)=O)c2)cc1 [Example 35, 3-[(4-Methoxyphenethyl)oxy]benzenecarboxamide]",16 to 64
25,"NC(=O)c1c(F)ccc(OCc2nc(COc3c(Cl)cccc3Cl)no2)c1F [Example 264, 3-(3-[(2,6-Dichlorophenoxy)methyl]-1,2,4-oxadiazol-5-ylmethoxy)-2,6-difluorobenzenecarboxamide]",16 to 64

row,Structure (SMILES),MIC [µg/mL]
1,"NC(=O)c1c(F)ccc(OCc2nc(-c3ccc(Cl)c([N+](=O)[O-])c3)no2)c1F [Example 329, 3-[3-(4-Chloro-3-nitro-phenyl)-[1,2,4]oxadiazol-5-ylmethoxy]-2,6-difluoro-benzamide]",< 8
2,"NC(=O)c1c(F)ccc(OCc2cccc(OCc3ccccc3)c2)c1F [Example 154, 3-(3-Benzyloxy-benzyloxy)-2,6-difluoro-benzamide]",< 8
3,"NC(=O)c1c(F)ccc(OCc2nc(-c3cccc(Cl)c3)no2)c1F [Example 255, 3-[3-(3-Chlorophenyl)-1,2,4-oxadiazol-5-yl]methoxy-2,6-difluorobenzenecarboxamide]",< 8
4,"C=C(C)COc1cccc(C(N)=O)c1 [Example 11, 3-[(2-Methyl-2-propenyl)oxy]benzenecarboxamide]",> 64
5,"NC(=O)c1c(F)ccc(OCc2nc(-c3ccccc3O)no2)c1F [Example 253, 2,6-Difluoro-3-[3-(2-hydroxyphenyl)-1,2,4-oxadiazol-5-yl]methoxybenzenecarboxamide]",16 to 64
6,"COCCOc1cccc(C(N)=O)c1 [Example 9, 3-(2-Methoxyethoxy)benzenecarboxamide]",> 64
7,"Cc1ccc2nc(COc3ccc(F)c(C(N)=O)c3F)ccc2c1 [Example 97, 2,6-Difluoro-3-(6-methyl-quinolin-2-ylmethoxy)-benzamide]",< 8
8,"NC(=O)c1c(F)ccc(OCc2ccc3cccc(Cl)c3n2)c1F [Example 112, 3-(8-Chloro-quinolin-2-ylmethoxy)-2,6-difluoro-benzamide]",< 8
9,"NC(=O)c1c(F)ccc(OCc2cn3ccccc3n2)c1F [Example 203, 2,6-Difluoro-3-(imidazo[1,2-a]pyridin-2-ylmethoxy)benzenecarboxamide]",> 64
10,"CC(C)CCCOc1cccc(C(N)=O)c1 [Example 14, 3-[(4-Methylpentyl)oxy]benzenecarboxamide]",16 to 64
11,"NC(=O)c1c(F)ccc(OCc2nnc(-c3ccccc3)o2)c1F [Example 238, 2,6-Difluoro-3-[(5-phenyl-1,3,4-oxadiazol-2-yl)methoxy]benzenecarboxamide]",16 to 64
12,"NC(=O)c1c(F)ccc(OCc2ccc3cc(Cl)ccc3n2)c1F [Example 110, 3-(6-Chloro-quinolin-2-ylmethoxy)-2,6-difluoro-benzamide]",< 8
13,"NC(=O)c1cccc(OCCCCC2CCCCC2)c1 [Example 44, 3-(4-Cyclohexylbutoxy)benzenecarboxamide]",< 8
14,"CCOC(=O)CCCCCOc1cccc(C(N)=O)c1 [Example 37, Ethyl 6-[3-(aminocarbonyl)phenoxy]hexanoate]",> 64
15,"C=CCOc1cccc(C(N)=O)c1 [Example 6, 3-(Allyloxy)benzenecarboxamide]",> 64
16,"CCOC(=O)COc1cccc(C(N)=O)c1 [Example 33, Ethyl 2-[3-(aminocarbonyl)phenoxy]acetate]",> 64
17,"COC(=O)CCCCCCCCCOc1cccc(C(N)=O)c1 [Example 38, Methyl 10-[3-(aminocarbonyl)phenoxy]decanoate]",< 8
18,"Cc1cccc(-c2ccc3sc(COc4ccc(F)c(C(N)=O)c4F)nc3c2)c1 [Example 142, 2,6-Difluoro-3-(5-m-tolyl-benzothiazol-2-ylmethoxy)-benzamide]",< 8
19,"CCCOCCOc1cccc(C(N)=O)c1 [Example 16, 3-(2-Propoxyethoxy)benzenecarboxamide]",> 64
20,"NC(=O)c1cccc(OCCc2ccc(F)cc2)c1 [Example 34, 3-[(4-Fluorophenethyl)oxy]benzenecarboxamide]",16 to 64
21,"CCCCC#CCCCCOc1cccc(C(N)=O)c1 [Example 48, 3-(5-Decynyloxy)benzenecarboxamide]",< 8
22,"NC(=O)c1cccc(OCc2ccc3ccccc3n2)c1 [Example 23, 3-(2-Quinolinylmethoxy)benzenecarboxamide]",16 to 64
23,"NC(=O)c1c(F)ccc(OCc2nc(-c3cccc([N+](=O)[O-])c3)no2)c1F [Example 259, 2,6-Difluoro-3-[3-(3-nitrophenyl)-1,2,4-oxadiazol-5-yl]methoxybenzenecarboxamide]",< 8
24,"NC(=O)c1cccc(OCCCCCc2ccccc2)c1 [Example 21, 3-[(5-Phenylpentyl)oxy]benzenecarboxamide]",16 to 64

# System: Staphylococcus aureus ATCC29213
# Experiment: Minimum Inhibitory Concentration (MIC) testing, broth microdilution, Staphylococcus aureus
# Format: cell-based
# Settings: Staphylococcus aureus ATCC29213; read-out: Staphylococcus aureus MICs Activity
# Protocol: as §1, §2
# Some of the compounds of the Examples were also tested for activity against the pathogenic organism Staphylococcus aureus ATCC29213. […] Activities were again scored as ‘A’ if the MIC was ≦8 micrograms/ml, ‘B’ if the MIC was 16 to 64 micrograms/ml and ‘C’ if the MIC was greater than 64 micrograms/ml.
row,Structure (SMILES),MIC [µg/mL]
1,"Cc1cc(COc2ccc(F)c(C(N)=O)c2F)ccc1F [Example 147, 2,6-Difluoro-3-(4-fluoro-3-methyl-benzyloxy)-benzamide]",16 to 64
2,"COc1ccc(-c2nc(COc3ccc(F)c(C(N)=O)c3F)sc2-c2ccncc2)cc1 [Example 127, 2,6-Difluoro-3-[4-(4-methoxy-phenyl)-5-pyridin-4-yl-thiazol-2-ylmethoxy]-benzamide]",< 8
3,"Cc1ccc2sc(COc3ccc(F)c(C(N)=O)c3F)cc2c1 [Example 205, 2,6-Difluoro-3-[(5-methyl-1-benzothiophen-2-yl)methoxy]benzenecarboxamide]",< 8
